# Assay results reported in patent US4229436A, “Antibiotic G-6302” (Takeda Chemical Industries, Ltd., priority 1977, dated 1980).
# Columns and labels:
# Solubility in solvents = type: physicochemical
# [1] = test system: Penicillium chrysogenum IFO 4626; test: Antimicrobial spectrum, agar plate dilution method; type: cell-based; settings: IFO4626, Nutrient agar containing 1% of glucose, read-out: Minimal inhibitory concentration
# From the text: (§1) The biological characteristics of G-6302 are as follows. The antimicrobial spectra of G-6302 and its sodium salt against various microorganisms are shown in Table 3 (agar plate dilution method.)
# (§2) *Medium = Nutrient agar containing 1% of glucose
# [2] = test system: Aspergillus niger IFO 4066; test: Antimicrobial spectrum, agar plate dilution method; type: cell-based; settings: IFO4066, Nutrient agar containing 1% of glucose, read-out: Minimal inhibitory concentration
# From the text: as §1, §2
# [3] = test system: Saccharomyces cerevisiae IFO 0209; test: Antimicrobial spectrum, agar plate dilution method; type: cell-based; settings: IFO0209, Nutrient agar containing 1% of glucose, read-out: Minimal inhibitory concentration
# From the text: as §1, §2
# [4] = test system: Candida albicans IFO 0583; test: Antimicrobial spectrum, agar plate dilution method; type: cell-based; settings: IFO0583, Nutrient agar containing 1% of glucose, read-out: Minimal inhibitory concentration
# From the text: as §1, §2
# gram-negative bacteria = test: Antimicrobial spectrum, summary in words; type: cell-based; settings: summary of Table 3
# From the text: as §1
# gram-positive bacteria = test: Antimicrobial spectrum, summary in words; type: cell-based; settings: summary of Table 3
# From the text: as §1
# [5] = test system: Proteus morganii IFO 3168; test: Antimicrobial spectrum, agar plate dilution method; type: cell-based; settings: Morganella morganii, IFO3168, Trypticasesoy-broth-agar, read-out: Minimal inhibitory concentration
# From the text: as §1
# (§3) Medium = Trypticasesoy-broth-agar
# [6] = test system: Proteus vulgaris IFO 3988; test: Antimicrobial spectrum, agar plate dilution method; type: cell-based; settings: IFO3988, Trypticasesoy-broth-agar, read-out: Minimal inhibitory concentration
# From the text: as §1, §3
# [7] = test system: Proteus mirabilis IFO 3849; test: Antimicrobial spectrum, agar plate dilution method; type: cell-based; settings: IFO3849, Trypticasesoy-broth-agar, read-out: Minimal inhibitory concentration
# From the text: as §1, §3
# [8] = test system: Pseudomonas aeruginosa U-31; test: Antimicrobial spectrum, agar plate dilution method; type: cell-based; settings: U31, Trypticasesoy-broth-agar, read-out: Minimal inhibitory concentration
# From the text: as §1, §3
# Klebsiella pneumoniae DT = test: Antimicrobial spectrum, agar plate dilution method; type: cell-based; settings: Trypticasesoy-broth-agar, read-out: Minimal inhibitory concentration
# From the text: as §1, §3
# [9] = test system: Bacillus subtilis PCI 219; test: Antimicrobial spectrum, agar plate dilution method; type: cell-based; settings: PCI219, Trypticasesoy-broth-agar, read-out: Minimal inhibitory concentration
# From the text: as §1, §3
# [10] = test system: Staphylococcus aureus FDA 209P; test: Antimicrobial spectrum, agar plate dilution method; type: cell-based; settings: FDA209P, Trypticasesoy-broth-agar, read-out: Minimal inhibitory concentration
# From the text: as §1, §3
# Escherichia coli NIHJ = test: Antimicrobial spectrum, agar plate dilution method; type: cell-based; settings: Trypticasesoy-broth-agar, read-out: Minimal inhibitory concentration
# From the text: as §1, §3
# [11] = test system: Serratia marcescens IFO 12648; test: Antimicrobial spectrum, agar plate dilution method; type: cell-based; settings: IFO12648, Trypticasesoy-broth-agar, read-out: Minimal inhibitory concentration
# From the text: as §1, §3
# Escherichia coli T-7 = test: Antimicrobial spectrum, agar plate dilution method; type: cell-based; settings: T7, Trypticasesoy-broth-agar, read-out: Minimal inhibitory concentration
# From the text: as §1, §3
# [12] = test system: Corynebacterium diphtheriae Toronto; test: Antimicrobial spectrum, agar plate dilution method; type: cell-based; settings: Trypticasesoy-broth-agar, read-out: Minimal inhibitory concentration
# From the text: as §1, §3
# [13] = test system: Streptococcus pyogenes E-14; test: Antimicrobial spectrum, agar plate dilution method; type: cell-based; settings: E14, Trypticasesoy-broth-agar, read-out: Minimal inhibitory concentration
# From the text: as §1, §3
# Shigella flexneri EW-10 = test: Antimicrobial spectrum, agar plate dilution method; type: cell-based; settings: EW10, Trypticasesoy-broth-agar, read-out: Minimal inhibitory concentration
# From the text: as §1, §3
# [14] = Stability in aqueous solution; type: physicochemical
# [15] = Basicity, neutrality or acidity; type: physicochemical
# Klebsiella pneumoniae = test: Protection of mice infected with Klebsiella pneumoniae; type: in vivo
# Escherichia coli = test: Protection of mice infected with Escherichia coli; type: in vivo
# [16] = test system: Salmonella typhosa Boxhill 58; test: Antimicrobial spectrum, agar plate dilution method; type: cell-based; settings: Salmonella enterica, read-out: Minimal inhibitory concentration
# From the text: as §1, §3
# [17] = Acute toxicity in mice, intravenous
# [18] = mouse, in vivo
# [19] = listed as sodium salt of G-6302
structure (smiles),measurement,setting,value
COC1(NC(=O)C(C)NC(=O)CCC(N)C(=O)O)CN(S(=O)(=O)O)C1=O (stereo not drawn) [Antibiotic G-6302],Solubility in acetone,Solubility in solvents,sparingly soluble
same,Solubility in benzene,Solubility in solvents; benzene,Insoluble
same,Solubility in chloroform,Solubility in solvents; chloroform,Insoluble
same,Solubility in diethyl ether,Solubility in solvents; diethyl ether,Insoluble
same,Solubility in dimethylsulfoxide,Solubility in solvents; dimethylsulfoxide,soluble
same,Solubility in ethanol,Solubility in solvents; ethanol,sparingly soluble
same,Solubility in ethyl acetate,Solubility in solvents; ethyl acetate,Insoluble
same,Solubility in hexane,Solubility in solvents; hexane,Insoluble
same,Solubility in methanol,Solubility in solvents,soluble
same,Solubility in petroleum ether,Solubility in solvents; petroleum ether,Insoluble
same,Solubility in pyridine,Solubility in solvents; pyridine,sparingly soluble
same,Solubility in water,Solubility in solvents; water,readily soluble
same,MIC,[1],> 100 mg/L
same,MIC,[2],> 100 mg/L
same,MIC,[3],> 100 mg/L
same,MIC,[4],> 100 mg/L
same,antimicrobial activity against gram-negative bacteria,gram-negative bacteria,inhibitory
same,antimicrobial activity against gram-negative bacteria,gram-negative bacteria; listed as Antibiotic G-6302,mainly active against gram-negative bacteria
same,antimicrobial activity against gram-positive bacteria,gram-positive bacteria,inhibitory
same,antimicrobial activity against gram-positive bacteria,gram-positive bacteria; listed as Antibiotic G-6302,also active against some gram-positive bacteria
same,MIC,[5],100 mg/L
same,MIC,[6],100 mg/L
same,MIC,[7],25 mg/L
same,MIC,[8],> 100 mg/L
same,MIC,Klebsiella pneumoniae DT,12.5 mg/L
same,MIC,[9],100 mg/L
same,MIC,[10],> 100 mg/L
same,MIC,Escherichia coli NIHJ,25 mg/L
same,MIC,[11],100 mg/L
same,MIC,Escherichia coli T-7,25 mg/L
same,MIC,[12],12.5 mg/L
same,MIC,[13],> 100 mg/L
same,MIC,Shigella flexneri EW-10,25 mg/L
same,Stability over pH 8.5,[14]; over pH 8.5,unstable
same,Stability in aqueous solution,"[14]; pH 3-pH 7, 60° C., 10 minutes",Stable
same,"Basicity, neutrality or acidity",[15],Acid
same,protecting action on infected mice,Klebsiella pneumoniae; oral dose of 100 mg/kg,protecting action
same,protecting action on infected mice,Klebsiella pneumoniae; subcutaneous dose of 10 mg/kg,protecting action
same,protecting action on infected mice,Escherichia coli; oral dose of 100 mg/kg,protecting action
same,protecting action on infected mice,Escherichia coli; subcutaneous dose of 10 mg/kg,protecting action
COC1(NC(=O)C(C)NC(=O)CCC(N)C(=O)O)CN(S(=O)(=O)O)C1=O (stereo not drawn) [crystals of G-6302],solubility in solvents (compared with product of Example 1),Solubility in solvents; crystals of Example 5,the same as those of the product obtained in Example 1
same,stability (compared with product of Example 1),[14]; crystals of Example 5,the same as those of the product obtained in Example 1
same,"basicity, neutrality or acidity (compared with product of Example 1)",[15]; crystals of Example 5,the same as those of the product obtained in Example 1
COC1(NC(=O)C(C)NC(=O)CCC(N)C(=O)O)CN(S(=O)(=O)O)C1=O (stereo not drawn) [G-6302 . Na],Solubility in acetone,Solubility in solvents; [19],Insoluble
same,Solubility in methanol,Solubility in solvents; [19],sparingly soluble
same,MIC,[16],12.5 mg/L
same,acute toxicity,[17],low
same,deaths,[18],no deaths
